Tests used:
[1] = Half life in male Crl:CD Sprague-Dawley rat at 40 to 80 mg/kg/day, po or iv measured after 28 days; format: ADME, organism-based; conditions: in vivo, dose 40-80 mg/kg/day, time 28 day
[2] = Half life in F344/N Jcl-rnu rat at 40 to 80 mg/kg/day, po or iv measured after 28 days; format: ADME, organism-based; conditions: in vivo, dose 40-80 mg/kg/day, time 28 day
[3] = Oral bioavailability in male Crl:CD Sprague-Dawley rat at 40 to 80 mg/kg/day measured after 28 days; format: ADME, organism-based; conditions: in vivo, dose 40-80 mg/kg/day, time 28 day
[4] = Oral bioavailability in F344/N Jcl-rnu rat at 40 to 80 mg/kg/day measured after 28 days; format: ADME, organism-based; conditions: in vivo, dose 40-80 mg/kg/day, time 28 day
RS4-11 = experiment: Antitumor activity in human RS4-11 cells xenografted in mouse model assessed as tumor growth regression at 200 mg/kg,po relative to control; format: functional
LNCaP = experiment: Antitumor activity in human LNCaP cells xenografted in mouse model assessed as tumor growth regression at 200 mg/kg,po relative to control; format: functional

| SMILES | half-life [1] | half-life [2] | bioavailability [3] | bioavailability [4] | Activity (RS4-11) | Activity (LNCaP) |
| --- | --- | --- | --- | --- | --- | --- |
| COc1ccc(/C=C/c2nc(NCCCN(C)C)c3ccccc3n2)cc1 | 14 h | 14 h | 12% | 12% |  |  |
| CC(C)(C)C[C@@H]1N[C@@H](C(=O)N[C@H]2CC[C@H](O)CC2)[C@H](c2cccc(Cl)c2F)[C@]12C(=O)Nc1cc(Cl)ccc12 [SAR-405838] |  |  |  |  | 100% | 80% |
